Measurements as given in patent publication US12344623B2, “Thiazolopyridine derivatives as adenosine receptor antagonists” (Merck Patent GmbH, priority 2019, dated 2025).

Tests used:
Assay type in all cases: cell-based
human A2B receptor = biological target: T1, human A2B receptor (Homo sapiens, UniProt P29275); assay: Functional A2B receptor activity, recombinant HEK293 cells, cAMP (HTRF), agonist NECA; details: read-out: Functional A2B receptor activity, HEK293, cAMP, IC50
T1 construct: expressed in transfected cells; host or cells: HEK293
T1 sequence (P29275 1-332): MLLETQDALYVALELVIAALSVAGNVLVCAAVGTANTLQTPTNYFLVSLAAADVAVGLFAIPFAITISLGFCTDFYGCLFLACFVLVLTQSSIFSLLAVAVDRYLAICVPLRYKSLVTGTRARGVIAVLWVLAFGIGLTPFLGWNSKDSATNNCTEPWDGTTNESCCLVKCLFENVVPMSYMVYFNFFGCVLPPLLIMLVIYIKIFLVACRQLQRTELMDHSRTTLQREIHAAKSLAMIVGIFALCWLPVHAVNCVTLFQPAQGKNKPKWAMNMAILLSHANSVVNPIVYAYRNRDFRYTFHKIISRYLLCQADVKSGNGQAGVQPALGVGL
How it was run: (§1)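 Cells were seeded, then treated with forskolin, test compound and agonist. After a 30 min incubation, HTRF detection reagents were added and intracellular cAMP was read. Values were scaled between an inhibitor control and DMSO before fitting.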

human A1 receptor = biological target: T2, human A1 receptor (Homo sapiens, UniProt P30542); assay: Functional A1 receptor activity, recombinant CHO cells, cAMP (HTRF), forskolin, agonist CPA; details: recombinant CHO cells, forskolin, agonist CPA; read-out: Functional A1 receptor activity, CHO, cAMP, IC50
T2 construct: expressed in transfected cells; host or cells: CHO
T2 sequence (P30542 1-326): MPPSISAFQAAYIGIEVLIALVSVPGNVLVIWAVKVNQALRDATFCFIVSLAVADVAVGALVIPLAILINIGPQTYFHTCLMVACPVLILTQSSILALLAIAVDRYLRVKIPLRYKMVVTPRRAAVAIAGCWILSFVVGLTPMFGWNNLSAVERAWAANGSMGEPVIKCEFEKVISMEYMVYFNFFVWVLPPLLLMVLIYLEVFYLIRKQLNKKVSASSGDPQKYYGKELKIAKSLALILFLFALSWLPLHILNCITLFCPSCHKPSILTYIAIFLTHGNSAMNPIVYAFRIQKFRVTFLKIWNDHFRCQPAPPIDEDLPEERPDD
How it was run: (§2)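 Recombinant CHO lines carrying either receptor receive forskolin, compound and the matching agonist, CPA or IB-MECA. After 30 min, HTRF reagents are added and cAMP is quantified. Values are normalized to inhibitor and neutral DMSO controls, then fitted.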

human A3 receptor = biological target: T3, human A3 receptor (Homo sapiens, UniProt P0DMS8); assay: Functional A3 receptor activity, recombinant CHO cells, cAMP (HTRF), forskolin, agonist IB-MECA; details: recombinant CHO cells, forskolin, agonist IB-MECA; read-out: Functional A3 receptor activity, CHO, cAMP, IC50
T3 construct: expressed in transfected cells; host or cells: CHO
T3 sequence (P0DMS8 1-318): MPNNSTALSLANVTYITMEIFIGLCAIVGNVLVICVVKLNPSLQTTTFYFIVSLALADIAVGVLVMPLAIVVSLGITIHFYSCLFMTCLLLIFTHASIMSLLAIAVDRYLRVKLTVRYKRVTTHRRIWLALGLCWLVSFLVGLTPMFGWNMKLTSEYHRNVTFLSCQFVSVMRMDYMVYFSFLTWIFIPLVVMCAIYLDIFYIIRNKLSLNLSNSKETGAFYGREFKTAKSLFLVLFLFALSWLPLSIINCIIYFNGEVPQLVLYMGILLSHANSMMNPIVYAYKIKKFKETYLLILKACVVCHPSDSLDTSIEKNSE
How it was run: as §2

mouse Pan T cells = assay: mTcell assay, cAMP, agonist NECA; details: Mus musculus, T-cell
Excerpt: Adenosine (Ado) in tumor microenvironment can inhibit T cell activity by signaling through A2A receptors and suppress cytokine secretion by T cells. […] Potential A2A antagonists or A2A/A2B dual antagonists can rescue T cells from this inhibition. Herein, we describe the in vitro system we established using Pan T cells from mouse spleens to screen potential A2A antagonists or A2A/A2B dual antagonists for their activity. The method described involves the use of CD3/CD28 pre-coated beads to stimulate Pan T cells purified from mouse splenocytes, combined with the addition of A2A agonist along with potential A2A or A2A/A2B dual antagonists to evaluate potentiation of T cell cytokine production.
Pan T-cells are isolated from black 6 mice by manual dissociation and purified using a Miltenyi Pan T-cell isolation kit. The isolated T-cells are activated in 96 well plates for 48 hours using anti-CD3/CD28 beads in T-cell proliferation media.
After 48 hours, the T-cells are pooled, counted and suspended in serum free media containing 0.1% BSA. The cells are plated at 50,000 cells per well in 10 ul of media and incubated for 2 hours at 37° C. Test compounds are dispensed into the wells at a 10-point dose response, starting at a concentration of 10 uM. […] The plates are incubated for 30 minutes at 37° C. and assayed for cAMP levels using the Cisbio cAMP Dynamic2 reagent kit by adding 10 ul of the kit reagents to each well. The plates are incubated for 1 hour at room temperature and the HTRF signal is read on an Envision plate reader. The raw data is analyzed in Genedata Screener and the resulting data is loaded into the database.

human A2A receptor [1] = biological target: T4, human A2A receptor (Homo sapiens, UniProt P29274); assay: Human T cells, endogenous A2A receptor, cAMP, agonist NECA; details: read-out: hTcell data, cAMP, IC50
Procedure: The endogenous functional activity of the Gs-coupled human A2A receptor was measured in T cells, where this receptor is highly expressed. Determination of receptor activity was done by quantification of cAMP, which is a second messenger for adenosine receptors.
In short, human pan T cells were isolated from human PBMC (MACS Pan T Cell Isolation Kit, Miltenyi Biotec) that have been derived from fresh whole blood. The T cells were seeded in 384-well microtiter plates and treated with test compounds. […] Finally, HTRF reagents (cAMP Femto Kit, CisBio) were added to the wells, and after 1 h cellular cAMP levels were determined using the ENVISION (Perkin Elmer) plate reader.
The obtained raw data were normalized against the inhibitor control and the neutral control (DMSO) and the normalized data were fitted using Genedata Screener software.

human A2A receptor [2] = biological target: T4, human A2A receptor; assay: Functional A2A receptor activity, recombinant HEK293 cells, cAMP (HTRF), agonist NECA; parameters: expressed in transfected cells; host or cells: HEK293; details: read-out: Functional A2A receptor activity, HEK293, cAMP, IC50
How it was run: as §1

T4 sequence (P29274 whole entry): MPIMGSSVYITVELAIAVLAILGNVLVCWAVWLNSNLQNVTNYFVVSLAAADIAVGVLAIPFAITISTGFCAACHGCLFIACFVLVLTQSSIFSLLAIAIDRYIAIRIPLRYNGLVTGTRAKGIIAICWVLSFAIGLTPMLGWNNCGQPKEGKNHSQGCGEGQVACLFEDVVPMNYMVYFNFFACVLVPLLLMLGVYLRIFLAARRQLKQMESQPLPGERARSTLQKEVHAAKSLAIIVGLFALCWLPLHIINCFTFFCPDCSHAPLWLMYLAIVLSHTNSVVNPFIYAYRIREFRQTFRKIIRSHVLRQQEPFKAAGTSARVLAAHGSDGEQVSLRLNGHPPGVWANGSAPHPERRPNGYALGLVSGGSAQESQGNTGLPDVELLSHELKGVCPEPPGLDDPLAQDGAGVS

| IC50 (human A2B receptor) [nM] | IC50 (human A1 receptor) [nM] | IC50 (human A3 receptor) [nM] | IC50 (mouse Pan T cells) [nM] | IC50 (human A2A receptor [1]) [nM] | IC50 (human A2A receptor [2]) [nM] | SMILES |
| --- | --- | --- | --- | --- | --- | --- |
| < 100 | > 1000 | > 1000 | < 100 | < 10 | < 10 | COc1ncc(C2=CCOCC2)c2sc(NC(=O)N3CCC4(CCNCC4)C3)nc12 [Compound 98, 2,8-Diaza-spiro[4.5]decane-2-carboxylic acid [7-(3,6-dihydro-2H-pyran-4-yl)-4-methoxy-thiazolo[4,5-c]pyridin-2-yl]-amide] |
| < 10 | > 1000 | > 1000 | < 100 | < 10 | < 10 | COc1nc(F)c(C2CCOCC2)c2sc(NC(=O)c3ccc(C(=O)N(C)CCO)cc3)nc12 [Compound 50, N-[6-Fluoro-4-methoxy-7-(tetrahydro-pyran-4-yl)-thiazolo[4,5-c]pyridin-2-yl]-N′-(2-hydroxy-ethyl)-N′-methyl-terephthalamide] |
| < 100 | > 1000 | > 1000 | < 10 | < 10 | < 10 | CNc1cccc(-c2cnc(OC)c3nc(NC(=O)N4CCC5(CCOCC5)C4)sc23)c1 [Compound 112, 8-Oxa-2-aza-spiro[4.5]decane-2-carboxylic acid [4-methoxy-7-(3-methylamino-phenyl)-thiazolo[4,5-c]pyridin-2-yl]-amide] |
| < 10 | < 1000 | > 1000 | < 10 | < 10 | < 10 | COc1ncc(-c2ccccc2)c2sc(NC(=O)N3CCC(N4C(=O)CNC4=O)CC3)nc12 [Compound 137, 4-(2,5-Dioxo-imidazolidin-1-yl)-piperidine-1-carboxylic acid (4-methoxy-7-phenyl-thiazolo[4,5-c]pyridin-2-yl)-amide] |
| < 10 | > 1000 | > 1000 | < 100 | < 100 | < 10 | COc1ncc(-c2ccccc2)c2sc(NC(=O)N3CCC(N4C(=O)CCC4=O)CC3)nc12 [Compound 99, 4-(2,5-Dioxo-pyrrolidin-1-yl)-piperidine-1-carboxylic acid (4-methoxy-7-phenyl-thiazolo[4,5-c]pyridin-2-yl)-amide] |
| < 100 | > 1000 | > 1000 | < 10 | < 10 | < 10 | COc1nc(F)c(N2CCOCC2)c2sc(NC(=O)N3CC[C@]4(CCCOC4)C3)nc12 [Compound 10, (R)-7-Oxa-2-aza-spiro[4.5]decane-2-carboxylic acid (6-fluoro-4-methoxy-7-morpholin-4-yl-thiazolo[4,5-c]pyridin-2-yl)-amide] |
| < 10 | < 1000 | > 1000 | < 10 | < 10 | < 10 | COc1ncc(-c2ccccc2)c2sc(NC(=O)N3CC[C@@H](CN)C3)nc12 [Compound 3, (S)-3-Aminomethyl-pyrrolidine-1-carboxylic acid (4-methoxy-7-phenyl-thiazolo[4,5-c]pyridin-2-yl)-amide] |
| < 100 | > 1000 | > 1000 | < 100 | < 10 | < 10 | COc1ncc(-c2ccccc2)c2sc(NC(=O)N3CC[C@H](CN)C3)nc12 [Compound 1, (R)-3-Aminomethyl-pyrrolidine-1-carboxylic acid (4-methoxy-7-phenyl-thiazolo[4,5-c]pyridin-2-yl)-amide] |
| < 10 | > 1000 | > 1000 | < 10 | < 10 | < 10 | COc1nc(F)c(N2CCOCC2)c2sc(NC(=O)N3CCC4(CCCOC4)C3)nc12 (stereo not drawn) [Compound 7, 7-Oxa-2-aza-spiro[4.5]decane-2-carboxylic acid (6-fluoro-4-methoxy-7-morpholin-4-yl-thiazolo[4,5-c]pyridin-2-yl)-amide] |
| < 10 | < 1000 | > 1000 | < 10 | < 10 | < 10 | COc1nc(F)c(-c2ccccc2)c2sc(NC(=O)N3CC[C@@]4(CCCOC4)C3)nc12 [Compound 13, (5S)-N-{6-fluoro-4-methoxy-7-phenyl-[1,3]thiazolo[4,5-c]pyridin-2-yl}-7-oxa-2-azaspiro[4.5]decane-2-carboxamide] |
| < 10 | < 1000 | > 1000 | < 100 | < 10 | < 10 | COc1ncc(C2=CCOCC2)c2sc(NC(=O)N3CCC(N4C(=O)CCC4=O)CC3)nc12 [Compound 100, 4-(2,5-Dioxo-pyrrolidin-1-yl)-piperidine-1-carboxylic acid [7-(3,6-dihydro-2H-pyran-4-yl)-4-methoxy-thiazolo[4,5-c]pyridin-2-yl]-amide] |
| < 10 | > 1000 | > 1000 | < 100 | < 100 | < 10 | COc1ncc(-c2ccco2)c2sc(NC(=O)N3CCC4(CCOCC4)C3)nc12 [Compound 48, 8-Oxa-2-aza-spiro[4.5]decane-2-carboxylic acid (7-furan-2-yl-4-methoxy-thiazolo[4,5-c]pyridin-2-yl)-amide] |
| < 10 | < 1000 | > 1000 | < 100 | < 10 | < 10 | COc1ncc(C2=CCOCC2)c2sc(NC(=O)N3CCC(N4C(=O)CNC4=O)CC3)nc12 [Compound 131, 4-(2,5-Dioxo-imidazolidin-1-yl)-piperidine-1-carboxylic acid [7-(3,6-dihydro-2H-pyran-4-yl)-4-methoxy-thiazolo[4,5-c]pyridin-2-yl]-amide] |
| < 100 | > 1000 | > 1000 | < 10 | < 10 | < 10 | COc1ncc(C2=CCOCC2)c2sc(NC(=O)N3CCC4(CCCNC4)C3)nc12 (stereo not drawn) [Compound 102, 2,7-Diaza-spiro[4.5]decane-2-carboxylic acid [7-(3,6-dihydro-2H-pyran-4-yl)-4-methoxy-thiazolo[4,5-c]pyridin-2-yl]-amide] |
